Reference: patent publication US6121278A, “Di-n-heterocyclic compounds, methods, and compositions for inhibiting parp activity” (Guilford Pharmaceuticals, Inc., priority 1998, dated 2000)
“Also recorded” adds a separate entry of the source.

Tests used:
septic shock mortality = assay: Septic shock assay (LPS plus galactosamine); format: in vivo, C57/BL male mice; details: 60, 20, 6 and 2 mg/kg daily IP for three days; LPS plus galactosamine challenge
Experimental: Groups of 10 C57/BL male mice weighing 18 to 20 g were administered a test compound, 1-carboxynaphthalene-1-carboxamide at the doses of 60, 20, 6 and 2 mg/kg, daily, by intraperitoneal (IP) injection for three consecutive days. Each animal was first challenged with lipopolysaccharide (LPS, from E. coli, LD100 of […] IV) plus galactosamine (20 mg/animal IV). The first dose of test compound in a suitable vehicle was given 30 minutes after challenge, and the second and third doses were given 24 hours later on day 2 and day 3 respectively, with only the surviving animals receiving the second or third dose of the test compound. Mortality was recorded every 12 hours after challenge for the three-day testing period. 1-Carboxy-naphthalene-1-carboxamide provided a protection against mortality from septic shock of about 40%.

[1] = test system: heart ischemia and reperfusion; details: cited from earlier work
[2] = test system: human fibroblast cells (W138 or BJ); assay: Extending proliferative capacity and lifespan of cells; format: cell-based
Experimental: At the time of subdivision, the media is aspirated, and the cells rinsed with phosphate buffer saline (PBS) and then trypsinized. The cells are counted with a Coulter counter and plated at a density of 10^5 cells per cm^2 in 6-well tissue culture plates in DMEM/199 medium supplemented with 10% bovine calf serum and varying amounts (0.10 μM, and 1 mM: from a 100× stock solution in DMEM/M199 medium) of a PARP inhibitor of Formula I as disclosed herein. This process is repeated every 7 days until the cell appear to stop dividing. The untreated (control) cells reach senescence and stop dividing after about 40 days in culture. […] The cells treated with 1 mM 3-AB will still divide after 60 days in culture.

colitis = details: rat, in vivo; cited from earlier work
[3] = test system: cell viability, glucose metabolism, and DNA synthesis; details: cited from earlier work
tumor cells = details: cited from earlier work
PARP = details: cited from earlier work
focal cerebral ischemia = assay: Focal cerebral ischemia (distal MCA cauterization with bilateral temporary CCA occlusion), infarct; format: in vivo, male Long-Evans rats; details: for cross-sectional infarct area curve (in words): FIG. 1
Experimental: (§1) Focal cerebral ischemia was produced by cauterization of the right distal MCA (middle cerebral artery) with bilateral temporary common carotid artery occlusion in male Long-Evans rats for 90 minutes. All procedures performed on the animals were approved by the University Institutional Animal Care and Use Committee of the University of Pennsylvania. A total of 42 rats (weights: 230-340 g) obtained from Charles River were used in this study. The animals fasted overnight with free access to water prior to the surgical procedure.
(§2) Two hours prior to MCA occlusion, varying amounts (control, n=14; 5 mg/kg, n=7; 10 mg/kg, n=7; 20 mg/kg, n=7; and 40 mg/kg, n=7) of the compound, 3,4-dihydro-5-[4-(1-piperidinyl)-butoxy]-1(2H)-isoquinolinone ("DPQ") were dissolved in dimethyl sulfoxide (DMSO) using a sonicator. A volume of 1.28 ml/kg of the resulting solution was injected intraperitoneally into fourteen rats.
(§3) The rats were then anesthetized with halothane (4% for induction and 0.8%-1.2% for the surgical procedure) in a mixture of 70% nitrous oxide and 30% oxygen. The body temperature was monitored by a rectal probe and maintained at 37.5±0.5° C. with a heating blanket regulated by a homeothermic blanket control unit (Harvard Apparatus Limited, Kent, U.K.). A catheter (PE-50) was placed into the tail artery, and arterial pressure was continuously monitored and recorded on a Grass polygraph recorder (Model 7D, Grass Instruments, Quincy, Mass.). Samples for blood gas analysis (arterial pH, PaO2 and PaCO2) were also taken from the tail artery catheter and measured with a blood gas analyzer (ABL 30, Radiometer, Copenhagen, Denmark). Arterial blood samples were obtained 30 minutes after MCA occlusion.
The head of the animal was positioned in a stereotaxic frame, and a right parietal incision between the right lateral canthus and the external auditory meatus was made. Using a dental drill constantly cooled with saline, a 3 mm burr hole was prepared over the cortex supplied by the right MCA, 4 mm lateral to the sagittal suture and 5 mm caudal to the coronal suture. The dura mater and a thin inner bone layer were kept, care being taken to position the probe over a tissue area devoid of large blood vessels. The flow probe (tip diameter of 1 mm, fiber separation of 0.25 mm) was lowered to the bottom of the cranial burr hole using a micromanipulator. The probe was held stationary by a probe holder secured to the skull with dental cement. The microvascular blood flow in the right parietal cortex was continuously monitored with a laser Doppler flowmeter (FloLab, Moor, Devon, U.K., and Periflux 4001, Perimed, Stockholm, Sweden).
Focal cerebral ischemia was produced by cauterization of the distal portion of the right MCA with bilateral temporary common carotid artery (CCA) occlusion by the procedure of Chen et al., "A Model of Focal Ischemic Stroke in the Rat: Reproducible Extensive Cortical Infarction", Stroke 17:738-43 (1986) and/or Liu et al., "Polyethylene Glycol-conjugated Superoxide Dismutase and Catalase Reduce Ischemic Brain Injury", Am. J. Physiol. 256:H589-93 (1989), both of which are hereby incorporated by reference.
Specifically, bilateral CCA's were isolated, and loops made from polyethylene (PE-10) catheter were carefully passed around the CCA's for later remote occlusion. […]

[4] = Arterial blood gases, pH and MABP in focal cerebral ischemia rats; format: in vivo, male Long-Evans rats; details: for MABP Ischemia: during occlusion; for MABP Steady State: just prior to occlusion
Experimental: as §1, §2, §3
A "steady state" MABP was taken following completion of the surgical reparation, just prior to occlusion; an "ischemia" MABP was taken as the average MABP during occlusion.

[5] = biological target: T1, purified recombinant human PARP (Homo sapiens, UniProt P09874); assay: PARP enzyme assay, [3H]NAD incorporation; format: biochemical; details: 25° C., 15 minutes; PARP inhibition; read-out: Approximate IC50's
T1 construct: purchased Trevigen (Gaithersburg, Md.)
T1 sequence (P09874 whole entry): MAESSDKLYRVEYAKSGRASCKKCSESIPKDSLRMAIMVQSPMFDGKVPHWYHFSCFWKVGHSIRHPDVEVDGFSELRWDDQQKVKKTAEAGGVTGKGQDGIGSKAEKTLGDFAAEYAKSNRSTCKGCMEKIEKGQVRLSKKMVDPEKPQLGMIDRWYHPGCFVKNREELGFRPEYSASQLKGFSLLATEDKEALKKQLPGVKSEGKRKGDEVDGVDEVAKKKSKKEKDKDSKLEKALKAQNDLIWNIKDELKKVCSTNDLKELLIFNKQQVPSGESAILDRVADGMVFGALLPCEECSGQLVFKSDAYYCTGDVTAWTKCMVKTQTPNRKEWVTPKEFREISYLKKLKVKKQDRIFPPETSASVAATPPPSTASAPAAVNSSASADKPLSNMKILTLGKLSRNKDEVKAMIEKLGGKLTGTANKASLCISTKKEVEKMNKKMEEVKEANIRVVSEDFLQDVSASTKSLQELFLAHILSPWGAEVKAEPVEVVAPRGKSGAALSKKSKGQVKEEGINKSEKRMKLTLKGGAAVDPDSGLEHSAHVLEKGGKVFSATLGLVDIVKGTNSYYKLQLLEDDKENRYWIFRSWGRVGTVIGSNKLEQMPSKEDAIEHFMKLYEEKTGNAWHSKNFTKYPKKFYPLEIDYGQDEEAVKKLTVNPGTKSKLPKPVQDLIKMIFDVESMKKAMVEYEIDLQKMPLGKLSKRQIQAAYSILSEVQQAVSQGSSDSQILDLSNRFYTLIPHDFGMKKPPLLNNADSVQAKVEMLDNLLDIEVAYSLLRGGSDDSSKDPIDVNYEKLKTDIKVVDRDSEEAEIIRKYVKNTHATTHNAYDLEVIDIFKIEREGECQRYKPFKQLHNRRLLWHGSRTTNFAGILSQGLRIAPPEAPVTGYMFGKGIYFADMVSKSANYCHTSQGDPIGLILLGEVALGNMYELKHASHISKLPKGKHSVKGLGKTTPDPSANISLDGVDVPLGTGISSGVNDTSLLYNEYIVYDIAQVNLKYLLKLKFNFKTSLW
Experimental: The reaction was initiated by incubating the mixture at 25° C. After 15 minutes' incubation, the reaction was terminated by adding 500 microliters of ice cold 20% (w/v) trichloroacetic acid. The precipitate formed was transferred onto a glass fiber filter (Packard Unifilter-GF/B) and washed three times with ethanol. After the filter was dried, the radioactivity was determined by scintillation counting.

[6] = dose of acetanilid given to a person; cited from earlier work
endotoxic shock = details: in vivo; cited from earlier work

1-carboxynaphthalene-1-carboxamide
protection against mortality from septic shock (septic shock mortality): about 40%

Oc1cccc2c(O)nccc12 [1,5-dihydroxyisoquinoline]
reduction in infarct size ([1]; 1 mg/kg single injection): 38-48%

NC(=O)c1cccc(N)c1 [3-aminobenzamide]
effect on lifespan of cells (in words) ([2]; 10 μM): little or no effect | effect on lifespan of cells (in words) ([2]; 100 μM): appears lengthen the lifespan of the cells | effect on lifespan and proliferative capacity of cells (in words) ([2]; 1 mM): dramatically increases the lifespan and proliferative capacity of the cells | time in culture after which cells still divide ([2]; 1 mM, untreated cells stop after about 40 days): > 60 days | reduction in infarct size in the heart ([1]; 10 mg/kg single injection, one minute before occlusion or reperfusion): 32-42% | colitis outcome (in words) (colitis): reduced the inflammatory response and restored the morphology and the energetic status of the distal colon | effect on cell viability, glucose metabolism, and DNA synthesis (in words) [3]: shown to affect cell viability, glucose metabolism, and DNA synthesis

O=c1[nH]c2ccccc2c2ccccc12 [6(5H)-Phenanthridinone]
proliferation of tumor cells (in words) (tumor cells): reduced proliferation of tumor cells | synergy with an alkylating drug (in words) (tumor cells; co-treatment with an alkylating drug): a marked synergistic effect when tumor cells are co-treated with an alkylating drug | PARP activity (in words) (PARP): inhibition of PARP activity

O=C1NCCc2c(OCCCCN3CCCCC3)cccc21 [DPQ, 3,4-dihydro-5-[4-(1-piperidinyl)-butoxy]-1(2H)-isoquinolinone]
cross-sectional infarct area curve (in words) (focal cerebral ischemia; 5 mg/kg i.p.): fell approximately halfway between the control and the 10 mg/kg curves | cross-sectional infarct area curve (in words) (focal cerebral ischemia; 20 mg/kg i.p.): fell approximately halfway between the control and the 10 mg/kg curves | infarct volume versus control (in words) (focal cerebral ischemia; 40 mg/kg i.p.): no significant difference between the control and the 40 mg/kg-treated group; also recorded: less neuroprotective | cross-sectional infarct area curve (in words) (focal cerebral ischemia; 40 mg/kg i.p.): close to the control | reduction in infarct volume overall (in words) (focal cerebral ischemia; overall, in vivo administration): substantial reduction in infarct volume | PaCO2 ([4]; 5 mg/kg-treated group (n = 7)): 38.0 ± 2.8 mm Hg | PaO2 ([4]; 5 mg/kg-treated group (n = 7)): 126 ± 20 mm Hg | arterial pH ([4]; 5 mg/kg-treated group (n = 7)): 7.36 ± 0.02 | MABP Ischemia ([4]; 5 mg/kg-treated group (n = 7), ** p < 0.01 vs steady state): 91 mm Hg | MABP Steady State ([4]; 5 mg/kg-treated group (n = 7)): 78 ± 5 mm Hg | PaCO2 ([4]; 10 mg/kg-treated group (n = 7)): 39.3 ± 5.2 mm Hg | PaO2 ([4]; 10 mg/kg-treated group (n = 7)): 125 ± 16 mm Hg | arterial pH ([4]; 10 mg/kg-treated group (n = 7)): 7.34 ± 0.03 | MABP Ischemia ([4]; 10 mg/kg-treated group (n = 7), * p < 0.05 vs steady state): 90 mm Hg | MABP Steady State ([4]; 10 mg/kg-treated group (n = 7)): 80 ± 9 mm Hg | PaCO2 ([4]; 20 mg/kg-treated group (n = 7)): 41.3 ± 2.8 mm Hg | PaO2 ([4]; 20 mg/kg-treated group (n = 7)): 122 ± 14 mm Hg | arterial pH ([4]; 20 mg/kg-treated group (n = 7)): 7.35 ± 0.23 | MABP Ischemia ([4]; 20 mg/kg-treated group (n = 7), ** p < 0.01 vs steady state): 91 mm Hg | MABP Steady State ([4]; 20 mg/kg-treated group (n = 7)): 79 ± 10 mm Hg | PaCO2 ([4]; 40 mg/kg-treated group (n = 7)): 39.5 ± 4.7 mm Hg | PaO2 ([4]; 40 mg/kg-treated group (n = 7)): 137 ± 17 mm Hg | arterial pH ([4]; 40 mg/kg-treated group (n = 7)): 7.33 ± 0.24 | MABP Ischemia ([4]; 40 mg/kg-treated group (n = 7), * p < 0.05 vs steady state): 88 mm Hg | MABP Steady State ([4]; 40 mg/kg-treated group (n = 7)): 78 ± 4 mm Hg

Nc1ccc2c(c1)oc(=O)c1ccccc12 [PARP Inhibitor (line 8)]
IC50 [5]: ~4 µM

CC(=O)Nc1ccc(O)cc1 [acetaminophen, p-hydroxyacetanilid]
plasma component / peak (in words) [6]: In the second hour, as the acetanilid level falls, the metabolite acetaminophen concentration reaches a peak

CC(=O)Nc1ccccc1 [acetanilid, acetanilide]
plasma component / peak (in words) [6]: During the first hour, acetanilid is the principal plasma component

NC(=O)c1ccccc1 [benzamide]
effect on cell viability, glucose metabolism, and DNA synthesis (in words) [3]: shown to affect cell viability, glucose metabolism, and DNA synthesis

NC(=O)c1cccnc1 [nicotinamide]
vascular failure in endotoxic shock (in words) (endotoxic shock): protects against delayed, NO-mediated vascular failure in endotoxic shock
